Assay results: ChEMBL document CHEMBL1201862, “PubChem BioAssay data set” (2004)
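How tested: cells in 96-well plates exposed to compound for 48 hours at five concentrations. The concentration for 50% growth inhibition is given as GI50.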 The source made the active and inactive calls. Cut-off read from the data, not from the text of the source: active = GI50 up to about 1.1 µM and inactive = higher.

How the values were obtained:
Experiment in all cases: DTP human tumour cell line panel, 48 h
A549 = system: A549
CAKI-1 = system: CAKI-1
EKVX = system: EKVX
HCT-116 = system: HCT-116
HOP-62 = system: HOP-62
HOP-92 = system: HOP-92
IGROV-1 = system: IGROV-1
NCI-H460 = system: NCI-H460
OVCAR-5 = system: OVCAR-5
RPMI-8226 = system: RPMI-8226
RXF 393 = system: RXF 393
SF-268 = system: SF-268
SK-MEL-5 = system: SK-MEL-5
SK-OV-3 = system: SK-OV-3
SNB-75 = system: SNB-75
A498 = system: A498
HL-60 = system: HL-60
NCI-H226 = system: NCI-H226

Row | SMILES | GI50 (A549) | GI50 (CAKI-1) | GI50 (EKVX) | GI50 (HCT-116) | GI50 (HOP-62) | GI50 (HOP-92) | GI50 (IGROV-1) | GI50 (NCI-H460) | GI50 (OVCAR-5) | GI50 (RPMI-8226) | GI50 (RXF 393) | GI50 (SF-268) | GI50 (SK-MEL-5) | GI50 (SK-OV-3) | GI50 (SNB-75) | GI50 (A498) | GI50 (HL-60) | GI50 (NCI-H226)
1 | CCOC(=O)C(NC(=O)OC(C)(C)C)C(=O)OCC | > 100 µM (inactive) | > 100 µM (inactive) | > 100 µM (inactive) | > 100 µM (inactive) | > 100 µM (inactive) | > 100 µM (inactive) | > 100 µM (inactive) | > 100 µM (inactive) | > 100 µM (inactive) | > 100 µM (inactive) | > 100 µM (inactive) | > 100 µM (inactive) | 64.1 µM (inactive) | > 100 µM (inactive) | > 100 µM (inactive) | – | – | –
2 | Oc1ccc(I)c2cccnc12 | 5.52 µM (inactive) | – | 9.27 µM (inactive) | 4.71 µM (inactive) | 14.8 µM (inactive) | 15.9 µM (inactive) | 8.18 µM (inactive) | 3.95 µM (inactive) | 52.5 µM (inactive) | 2.89 µM (inactive) | 6.82 µM (inactive) | 7.45 µM (inactive) | – | 5.07 µM (inactive) | – | 32 µM (inactive) | 2.12 µM (inactive) | 15.6 µM (inactive)
3 | CC1CCC[P+](Cc2ccccc2)(c2ccccc2)CC1 (configuration not stated) | > 100 µM (inactive) | – | > 100 µM (inactive) | – | > 100 µM (inactive) | – | 39 µM (inactive) | 79.6 µM (inactive) | > 100 µM (inactive) | 7.23 µM (inactive) | 23.1 µM (inactive) | 89.1 µM (inactive) | 14.5 µM (inactive) | > 100 µM (inactive) | 40.3 µM (inactive) | > 100 µM (inactive) | 14.8 µM (inactive) | –
4 | CC(/C=C/c1ccccc1)=N\N=C(C)\C=C\c1ccccc1 | > 100 µM (inactive) | – | > 100 µM (inactive) | > 100 µM (inactive) | > 100 µM (inactive) | – | > 100 µM (inactive) | > 100 µM (inactive) | > 100 µM (inactive) | > 100 µM (inactive) | – | > 100 µM (inactive) | > 100 µM (inactive) | > 100 µM (inactive) | 42.2 µM (inactive) | > 100 µM (inactive) | > 100 µM (inactive) | > 100 µM (inactive)
5 | O=C(N/C(=C\c1cc(Cl)ccc1Cl)c1nc2ccccc2[nH]1)c1ccccc1 | 35.1 µM (inactive) | 30.8 µM (inactive) | 28.5 µM (inactive) | – | – | 8.41 µM (inactive) | > 10 µM (inactive) | – | 52.2 µM (inactive) | – | 21.3 µM (inactive) | 36.1 µM (inactive) | 21.7 µM (inactive) | > 100 µM (inactive) | – | – | 21.2 µM (inactive) | –
6 | COc1cc(OC)c(OC)cc1/C=N/NC(=O)N/N=C/c1cc(OC)c(OC)cc1OC | > 100 µM (inactive) | – | > 100 µM (inactive) | > 100 µM (inactive) | – | 49.9 µM (inactive) | > 100 µM (inactive) | > 100 µM (inactive) | > 100 µM (inactive) | > 100 µM (inactive) | – | > 100 µM (inactive) | > 100 µM (inactive) | > 100 µM (inactive) | 15.8 µM (inactive) | > 100 µM (inactive) | – | > 100 µM (inactive)
7 | CCCN(CCCC(NC(C)=O)C(=O)NCc1ccccc1)C(=O)N(C)N=O (configuration not stated) | > 100 µM (inactive) | > 100 µM (inactive) | > 100 µM (inactive) | > 100 µM (inactive) | > 100 µM (inactive) | > 100 µM (inactive) | > 100 µM (inactive) | > 100 µM (inactive) | > 100 µM (inactive) | > 100 µM (inactive) | > 100 µM (inactive) | > 100 µM (inactive) | > 100 µM (inactive) | > 100 µM (inactive) | 41.3 µM (inactive) | > 100 µM (inactive) | – | > 100 µM (inactive)
8 | Cc1ccc(/C=C/C(=O)C(C)(C)CN2CCCCC2)cc1 | 5.68 µM (inactive) | 3.78 µM (inactive) | 3.18 µM (inactive) | 10.5 µM (inactive) | 15.7 µM (inactive) | – | 11.4 µM (inactive) | 8.28 µM (inactive) | 15.2 µM (inactive) | 3.49 µM (inactive) | 5.11 µM (inactive) | 15.7 µM (inactive) | 2.86 µM (inactive) | 11 µM (inactive) | 5.37 µM (inactive) | 6.24 µM (inactive) | – | 13.2 µM (inactive)
9 | O=c1c2ccccc2n2n1CC(O)C2 (configuration not stated) | > 100 µM (inactive) | > 100 µM (inactive) | > 100 µM (inactive) | > 100 µM (inactive) | > 100 µM (inactive) | > 100 µM (inactive) | > 100 µM (inactive) | > 100 µM (inactive) | > 100 µM (inactive) | > 100 µM (inactive) | > 100 µM (inactive) | > 100 µM (inactive) | > 100 µM (inactive) | > 100 µM (inactive) | > 100 µM (inactive) | – | > 100 µM (inactive) | > 100 µM (inactive)
10 | CC(=O)N(C)c1ccc2ncccc2c1[N+](=O)[O-] | > 100 µM (inactive) | > 100 µM (inactive) | > 100 µM (inactive) | > 100 µM (inactive) | > 100 µM (inactive) | > 100 µM (inactive) | > 100 µM (inactive) | > 100 µM (inactive) | > 100 µM (inactive) | > 100 µM (inactive) | > 100 µM (inactive) | > 100 µM (inactive) | > 100 µM (inactive) | – | > 100 µM (inactive) | > 100 µM (inactive) | > 100 µM (inactive) | > 100 µM (inactive)
11 | COc1ccc(C#CCC(OC2OC(CO)C(O)C(O)C2O)C(O)c2ccc(OC)c(OC)c2)cc1OC (configuration not stated) | > 100 µM (inactive) | > 100 µM (inactive) | 81.3 µM (inactive) | > 100 µM (inactive) | > 100 µM (inactive) | – | > 100 µM (inactive) | > 100 µM (inactive) | > 100 µM (inactive) | > 100 µM (inactive) | > 100 µM (inactive) | > 100 µM (inactive) | > 100 µM (inactive) | > 100 µM (inactive) | > 100 µM (inactive) | > 100 µM (inactive) | 61.1 µM (inactive) | > 100 µM (inactive)
12 | NNC(=O)N/N=C1\C(=O)N(c2nccs2)C(=O)C(=O)C1c1nc2ccccc2s1 (configuration not stated) | > 100 µM (inactive) | > 100 µM (inactive) | > 100 µM (inactive) | > 100 µM (inactive) | > 100 µM (inactive) | > 100 µM (inactive) | > 100 µM (inactive) | > 100 µM (inactive) | > 100 µM (inactive) | > 100 µM (inactive) | > 100 µM (inactive) | > 100 µM (inactive) | – | > 100 µM (inactive) | > 100 µM (inactive) | – | – | > 100 µM (inactive)
13 | Cc1ccc(C)c(NC2=NC(=O)C(CC(=O)Nc3ccc(Cl)cc3Cl)S2)c1 (configuration not stated) | > 100 µM (inactive) | > 100 µM (inactive) | > 100 µM (inactive) | – | > 100 µM (inactive) | – | > 100 µM (inactive) | > 100 µM (inactive) | > 100 µM (inactive) | > 100 µM (inactive) | 31.2 µM (inactive) | 37.8 µM (inactive) | > 100 µM (inactive) | > 100 µM (inactive) | 44.7 µM (inactive) | 28.6 µM (inactive) | > 100 µM (inactive) | 28.1 µM (inactive)
14 | Cc1c(Cl)cccc1NC(=O)C(=O)C(C(=O)c1ccccc1-c1ccccc1)C1OC(=O)c2ccccc21 (configuration not stated) | 22.4 µM (inactive) | – | 26.8 µM (inactive) | 12.5 µM (inactive) | 16.3 µM (inactive) | 15.2 µM (inactive) | 32.1 µM (inactive) | 25.5 µM (inactive) | 22.5 µM (inactive) | 13.8 µM (inactive) | 12.6 µM (inactive) | 19.7 µM (inactive) | 15.7 µM (inactive) | 43 µM (inactive) | 19.3 µM (inactive) | – | 16.8 µM (inactive) | 3.94 µM (inactive)
15 | CN1CCC(O)C(CNC23CC4CC(CC(C4)C2)C3)C1 (configuration not stated) | > 100 µM (inactive) | > 100 µM (inactive) | > 100 µM (inactive) | – | > 100 µM (inactive) | 85.1 µM (inactive) | – | > 100 µM (inactive) | > 100 µM (inactive) | – | 62.2 µM (inactive) | > 100 µM (inactive) | > 100 µM (inactive) | > 100 µM (inactive) | – | > 100 µM (inactive) | > 100 µM (inactive) | > 100 µM (inactive)
16 | Cc1cc(N(CCC#N)CCC#N)ccc1/C=C1N=C(/C=C\c2ccccc2)N(c2ccc(C(=O)O)cc2)C\1=O | > 100 µM (inactive) | > 100 µM (inactive) | – | > 100 µM (inactive) | > 100 µM (inactive) | > 100 µM (inactive) | > 100 µM (inactive) | > 100 µM (inactive) | > 100 µM (inactive) | > 100 µM (inactive) | – | > 100 µM (inactive) | > 100 µM (inactive) | > 100 µM (inactive) | > 100 µM (inactive) | > 100 µM (inactive) | > 100 µM (inactive) | > 100 µM (inactive)
17 | [C-]#[N+]C(C)(C)C[C@H]1CC(C)C2CCC(C)C3([N+]#[C-])CCC(=C)C1[C@H]23 (some centres not stated) | 1.58 µM (inactive) | 3.19 µM (inactive) | 6.55 µM (inactive) | 0.184 µM (active) | 2.55 µM (inactive) | 0.106 µM (active) | 1.34 µM (inactive) | – | 0.288 µM (active) | – | 0.294 µM (active) | 0.308 µM (active) | 2.67 µM (inactive) | 3.69 µM (inactive) | 8.32 µM (inactive) | 7.96 µM (inactive) | 0.601 µM (active) | 2.32 µM (inactive)
18 | Cn1c(=O)nc2n(-c3cc(Cl)ccc3Cl)c3ccccc3nc-2c1=O | 4 µM (inactive) | 7.19 µM (inactive) | 3.88 µM (inactive) | 4.33 µM (inactive) | 12 µM (inactive) | – | 13 µM (inactive) | 2.53 µM (inactive) | 13 µM (inactive) | 4.71 µM (inactive) | 14.8 µM (inactive) | 11.9 µM (inactive) | 1.95 µM (inactive) | 28 µM (inactive) | 11.2 µM (inactive) | 18.6 µM (inactive) | – | 7.69 µM (inactive)
